Assay results taken from patent US6900219B2, “ABCA-1 elevating compounds” (CV Therapeutics, Inc., priority 2002, dated 2005).

Test system: ABCA-1 gene
Assay: compounds tested and found to elevate cellular expression of the ABCA-1 gene (Examples 1-6; test not named)
Type: cell-based
Method: Activity testing is conducted as described in those patents and patent applications referenced above, and in the Examples below, and by methods apparent to one skilled in the art.

Structure (SMILES)	cellular expression of the ABCA-1 gene
O=C(Nc1nc2c(Cl)cccc2s1)c1cccs1 [N-(4-chlorobenzothiazol-2-yl)-2-thienylcarboxamide]	elevate cellular expression of the ABCA-1 gene
CCCc1c(C(=O)Nc2nc3c(Cl)cccc3s2)cnn1-c1ccc(Cl)cc1 [N-(4-chlorobenzothiazol-2-yl)[1-(4-chlorophenyl)-5-propylpyrazol-4-yl]carboxamide]	elevate cellular expression of the ABCA-1 gene
O=C(Nc1ccc(Cl)cc1)c1ccc2ccccc2c1 [N-(4-chlorophenyl)-2-naphthylcarboxamide]	elevate cellular expression of the ABCA-1 gene
CCOc1ccc(NC(=O)Nc2ccc(Cl)cc2)cc1 [N-(4-ethoxyphenyl)[(4-chlorophenyl)amino]carboxamide]	elevate cellular expression of the ABCA-1 gene
O=C(Nc1ccc(F)cc1)c1cc2ccccc2oc1=O [N-(4-fluorophenyl)(2-oxochromen-3-yl)carboxamide]	elevate cellular expression of the ABCA-1 gene
Cc1ccc(NC(=O)Oc2ccc(C3=NCCS3)cc2)cc1 [N-(4-methylphenyl)(4-(1,3-thiazolin-2-yl)phenoxy)carboxamide]	elevate cellular expression of the ABCA-1 gene
Cc1cc(C)c2ccc(NC(=O)c3ccc(Cl)cc3)nc2n1 [N-(5,7-dimethylpyridino[3,2-e]pyridin-2-yl)(4-chlorophenyl)carboxamide]	elevate cellular expression of the ABCA-1 gene
O=C(Cc1cccs1)Nc1ncc(-c2ccccc2)s1 [N-(5-phenyl(1,3-thiazol-2-yl))-2-(2-thienyl)acetamide]	elevate cellular expression of the ABCA-1 gene
O=C(Nc1ncc(-c2ccccc2)s1)c1ccccn1 [N-(5-phenyl(1,3-thiazol-2-yl))-2-pyridylcarboxamide]	elevate cellular expression of the ABCA-1 gene
O=C(Nc1ncc(-c2ccccc2)s1)c1cccc(C(F)(F)F)c1 [N-(5-phenyl(1,3-thiazol-2-yl))[3-(trifluoromethyl)phenyl]carboxamide]	elevate cellular expression of the ABCA-1 gene
O=C(Nc1ncc(-c2ccccc2)s1)c1ccc(OC(F)(F)F)cc1 [N-(5-phenyl(1,3-thiazol-2-yl))[4-(trifluoromethoxy)phenyl]carboxamide]	elevate cellular expression of the ABCA-1 gene
N#Cc1cccc(C(=O)Nc2nc3ccc(Cl)cc3s2)c1 [N-(6-chlorobenzothiazol-2-yl)(3-cyanophenyl)carboxamide]	elevate cellular expression of the ABCA-1 gene
CCOc1ccc2nc(NC(=O)Nc3ccccc3)sc2c1 [N-(6-ethoxybenzothiazol-2-yl)(phenylamino)carboxamide]	elevate cellular expression of the ABCA-1 gene
CCOc1ccc2nc(NC(=O)CC)sc2c1 [N-(6-ethoxybenzothiazol-2-yl)propanamide]	elevate cellular expression of the ABCA-1 gene
O=C(c1ccc(Br)cc1)N(CCc1ccccc1)Cc1c2ccccc2cc2ccccc12 [N-(9-anthrylmethyl)(4-bromophenyl)-N-(2-phenylethyl)carboxamide]	elevate cellular expression of the ABCA-1 gene
CCOc1ccc(C(=O)N(Cc2c3ccccc3cc3ccccc23)C(=O)Nc2ccccc2F)cc1 [N-(9-anthrylmethyl)(4-ethoxyphenyl)-N-{[(2-fluorophenyl)amino]carbonyl}-carboxamide]	elevate cellular expression of the ABCA-1 gene
COc1ccc(C(=O)N(CCc2ccccc2)Cc2c3ccccc3cc3ccccc23)cc1 [N-(9-anthrylmethyl)(4-methoxyphenyl)-N-(2-phenylethyl)carboxamide]	elevate cellular expression of the ABCA-1 gene
CCc1ccc(N(Cc2c3ccccc3cc3ccccc23)C(=O)Nc2ccccc2F)cc1 [N-(9-anthrylmethyl)-N-(4-ethylphenyl)[(2-fluorophenyl)amino]carboxamide]	elevate cellular expression of the ABCA-1 gene
CCn1c2ccccc2c2cc(NC(=O)c3ccc(F)cc3)ccc21 [N-(9-ethylcarbazol-3-yl)(4-fluorophenyl)carboxamide]	elevate cellular expression of the ABCA-1 gene
CCn1c2ccccc2c2cc(NC(=O)c3ccc(OC)cc3)ccc21 [N-(9-ethylcarbazol-3-yl)(4-methoxyphenyl)carboxamide]	elevate cellular expression of the ABCA-1 gene

Structure (SMILES)	cellular expression of the ABCA-1 gene
CCn1c2ccccc2c2cc(NC(=O)c3ccc(C)cc3)ccc21 [N-(9-ethylcarbazol-3-yl)(4-methylphenyl)carboxamide]	elevate cellular expression of the ABCA-1 gene
CCCCCCCCCCCC(=O)N(/C=C/c1ccccc1)c1ccc(CC)cc1 [N-((1E)-2-phenylvinyl)-N-(4-ethylphenyl)dodecanamide]	elevate cellular expression of the ABCA-1 gene
CCc1ccc(C(=O)N(C/C=C/c2ccccc2)c2ccc(Br)cc2)cc1 [N-((2E)-3-phenylprop-2-enyl)-N-(4-bromophenyl)(4-ethylphenyl)carboxamide]	elevate cellular expression of the ABCA-1 gene
O=C(NCCc1ccccc1F)c1ccc2oc(N3CCCN(C(=O)Cc4ccc(C(F)(F)F)cc4)CC3)nc2c1 [N-[2-(2-fluorophenyl)ethyl][2-(4-{2-[4-(trifluoromethyl)phenyl]acetyl}(1,4-diazaperhydroepinyl))benzoxazol-5-yl]carboxamide]	elevate cellular expression of the ABCA-1 gene
O=C(NCCc1ccccc1F)c1ccc2oc(N3CCCN(C(=O)CCc4c[nH]c5ccccc45)CC3)nc2c1 [N-[2-(2-fluorophenyl)ethyl]{2-[4-(3-indol-3-ylpropanoyl)(1,4-diazaperhydroepinyl)]benzoxazol-5-yl}carboxamide]	elevate cellular expression of the ABCA-1 gene
COc1ccc(CCN(Cc2ccc(C(C)(C)C)cc2)C(=O)c2ccco2)cc1OC [N-[2-(3,4-dimethoxyphenyl)ethyl]-N-{[4-(tert-butyl)phenyl]methyl}-2-furylcarboxamide]	elevate cellular expression of the ABCA-1 gene
COc1ccc(CN(CCc2ccc(OC)c(OC)c2)C(=O)C2CC2)cc1 [N-[2-(3,4-dimethoxyphenyl)ethyl]cyclopropyl-N-[(4-methoxyphenyl)methyl]-carboxamide]	elevate cellular expression of the ABCA-1 gene
O=C(CNC(=O)c1ccccc1F)c1ccc(Cl)cc1 [N-[2-(4-chlorophenyl)-2-oxoethyl](2-fluorophenyl)carboxamide]	elevate cellular expression of the ABCA-1 gene
CC(c1nc2ccccc2c(=O)n1-c1ccc2ccccc2c1)N(CCN(C)C)C(=O)Nc1cccc(C#N)c1 (stereo not shown) [N-[2-(dimethylamino)ethyl][(3-cyanophenyl)amino]-N-[(3-(2-naphthyl)-4-oxo(3-hydroquinazolin-2-yl))ethyl]carboxamide]	elevate cellular expression of the ABCA-1 gene
COc1cccc(NC(=O)N(CCN(C)C)C(C)c2nc3ccccc3c(=O)n2-c2ccc3ccccc3c2)c1 (stereo not shown) [N-[2-(dimethylamino)ethyl][(3-methoxyphenyl)amino]-N-[(3-(2-naphthyl)-4-oxo(3-hydroquinazolin-2-yl))ethyl]carboxamide]	elevate cellular expression of the ABCA-1 gene
O=C(Nc1nc(-c2ccc(Cl)cc2)cs1)c1ccc(-c2ccccc2)cc1 [N-[4-(4-chlorophenyl)(1,3-thiazol-2-yl)](4-phenylphenyl)carboxamide]	elevate cellular expression of the ABCA-1 gene
O=C(Nc1nc(-c2ccc(Cl)cc2)cs1)c1ccc(C(F)(F)F)cc1F [N-[4-(4-chlorophenyl)(1,3-thiazol-2-yl)][2-fluoro-4-(trifluoromethyl)phenyl]-carboxamide]	elevate cellular expression of the ABCA-1 gene
O=C(Nc1nc(-c2ccc(Cl)cc2)cs1)c1cccc(C(F)(F)F)c1 [N-[4-(4-chlorophenyl)(1,3-thiazol-2-yl)][3-(trifluoromethyl)phenyl]carboxamide]	elevate cellular expression of the ABCA-1 gene
O=C(Nc1nc(-c2ccc(Cl)cc2)cs1)c1ccc(OC(F)(F)F)cc1 [N-[4-(4-chlorophenyl)(1,3-thiazol-2-yl)][4-(trifluoromethoxy)phenyl]carboxamide]	elevate cellular expression of the ABCA-1 gene
O=C(Nc1nc(-c2ccc(Cl)cc2)cs1)C1CCCC1 [N-[4-(4-chlorophenyl)(1,3-thiazol-2-yl)]cyclopentylcarboxamide]	elevate cellular expression of the ABCA-1 gene
Cc1cc(C)c2oc(-c3ccc(NC(=O)c4ccccc4Br)cc3)nc2c1 [N-[4-(5,7-dimethylbenzoxazol-2-yl)phenyl](2-bromophenyl)carboxamide]	elevate cellular expression of the ABCA-1 gene
Cc1ccc2nc(-c3ccc(NC(=O)c4ccccc4C)cc3)sc2c1 [N-[4-(6-methylbenzothiazol-2-yl)phenyl](2-methylphenyl)carboxamide]	elevate cellular expression of the ABCA-1 gene
Cc1ccc2nc(-c3ccc(NC(=O)Cc4cccs4)cc3)sc2c1 [N-[4-(6-methylbenzothiazol-2-yl)phenyl]-2-(2-thienyl)acetamide]	elevate cellular expression of the ABCA-1 gene
CCN(CC)CCCC(C)NC(=O)c1cnn(-c2nc(-c3cccc(OC)c3)cs2)c1C (stereo not shown) [N-[4-(diethylamino)-1-methylbutyl]{1-[4-(3-methoxyphenyl)(1,3-thiazol-2-yl)]-5-methylpyrazol-4-yl}carboxamide]	elevate cellular expression of the ABCA-1 gene
CCc1c(C(=O)NC(C)CCCN(CC)CC)cnn1-c1nc(-c2ccc(Br)cc2)cs1 (stereo not shown) [N-[4-(diethylamino)-1-methylbutyl]{1-[4-(4-bromophenyl)(1,3-thiazol-2-yl)]-5-ethylpyrazol-4-yl}carboxamide]	elevate cellular expression of the ABCA-1 gene
